According to ChEMBL document CHEMBL2434882, “A novel [1,2,4] triazolo [1,5-a] pyrimidine-based phenyl-linked steroid dimer: synthesis and its cytotoxic activity” (Eur J Med Chem, 2013):
Activity calls are given as the source filed them. The calls are words filed in the database; no cut-off is given here.

Experiments:
[1] = Downregulation of MDM2 protein expression in human EC109 cells at 5 to 10 uM after 24 hrs by Western blot analysis; type: functional, cell-based; settings: ECa-109
[2] = test system: ECa-109 cell line; assay: Induction of apoptosis in human EC109 cells assessed as nuclear fragmentation at 1.25 to 20 uM after 24 hrs by Hoechst 33258 staining-based fluorescence microscopic analysis; type: functional, cell-based
[3] = Cell cycle arrest in human EC109 cells assessed as accumulation at G2/M phase after 12 to 24 hrs by propidium iodide staining-based flow cytometric analysis; type: functional; settings: ECa-109
[4] = Cell cycle arrest in human EC109 cells assessed as accumulation at G2/M phase at 10 uM after 24 hrs by propidium iodide staining-based flow cytometric analysis (reference value: 6.31%); type: functional; settings: ECa-109
[5] = Cell cycle arrest in human EC109 cells assessed as accumulation at S phase at 10 uM after 24 hrs by propidium iodide staining-based flow cytometric analysis (reference value: 37.99%); type: functional; settings: ECa-109
[6] = Cell cycle arrest in human EC109 cells assessed as accumulation at S phase at 5 uM after 24 hrs by propidium iodide staining-based flow cytometric analysis (reference value: 37.99%); type: functional; settings: ECa-109
[7] = Cell cycle arrest in human EC109 cells assessed as accumulation at G0/G1 phase at 5 uM after 24 hrs by propidium iodide staining-based flow cytometric analysis (reference value: 51.57%); type: functional; settings: ECa-109
[8] = Cell cycle arrest in human EC109 cells assessed as accumulation at S phase at 2.5 uM after 24 hrs by propidium iodide staining-based flow cytometric analysis (reference value: 37.99%); type: functional; settings: ECa-109
[9] = Cell cycle arrest in human EC109 cells assessed as accumulation at G0/G1 phase at 10 uM after 12 hrs by propidium iodide staining-based flow cytometric analysis (reference value: 50.87%); type: functional; settings: ECa-109
[10] = Cell cycle arrest in human EC109 cells assessed as accumulation at G2/M phase at 5 uM after 12 hrs by propidium iodide staining-based flow cytometric analysis (reference value: 13.72%); type: functional; settings: ECa-109
[11] = Cell cycle arrest in human EC109 cells assessed as accumulation at G0/G1 phase at 5 uM after 12 hrs by propidium iodide staining-based flow cytometric analysis (reference value: 50.87%); type: functional; settings: ECa-109
[12] = Cell cycle arrest in human EC109 cells assessed as accumulation at S phase at 2.5 uM after 12 hrs by propidium iodide staining-based flow cytometric analysis (reference value: 33.29%); type: functional; settings: ECa-109
[13] = test system: ECa-109 cell line; assay: Induction of apoptosis in human EC109 cells assessed as increase in early apoptotic cells after 12 to 24 hrs by annexin V-FITC/propidium iodide staining-based flow cytometric analysis; type: functional, cell-based
[14] = test system: ECa-109 cell line; assay: Induction of apoptosis in human EC109 cells assessed as late apoptotic cells at 40 uM after 24 hrs by annexin V-FITC/propidium iodide staining-based flow cytometric analysis (reference value: 2.5%); type: functional
[15] = test system: ECa-109 cell line; assay: Induction of apoptosis in human EC109 cells assessed as live cells at 20 uM after 24 hrs by annexin V-FITC/propidium iodide staining-based flow cytometric analysis (reference value: 93.6%); type: functional
[16] = test system: ECa-109 cell line; assay: Induction of apoptosis in human EC109 cells assessed as early apoptotic cells at 20 uM after 24 hrs by annexin V-FITC/propidium iodide staining-based flow cytometric analysis (reference value: 3.8%); type: functional
[17] = test system: ECa-109 cell line; assay: Induction of apoptosis in human EC109 cells assessed as live cells at 10 uM after 24 hrs by annexin V-FITC/propidium iodide staining-based flow cytometric analysis (reference value: 93.6%); type: functional
[18] = test system: ECa-109 cell line; assay: Induction of apoptosis in human EC109 cells assessed as late apoptotic cells at 10 uM after 24 hrs by annexin V-FITC/propidium iodide staining-based flow cytometric analysis (reference value: 2.5%); type: functional
[19] = test system: ECa-109 cell line; assay: Induction of apoptosis in human EC109 cells assessed as early apoptotic cells at 10 uM after 24 hrs by annexin V-FITC/propidium iodide staining-based flow cytometric analysis (reference value: 3.8%); type: functional
[20] = test system: ECa-109 cell line; assay: Induction of apoptosis in human EC109 cells assessed as late apoptotic cells at 5 uM after 24 hrs by annexin V-FITC/propidium iodide staining-based flow cytometric analysis (reference value: 2.5%); type: functional
[21] = test system: ECa-109 cell line; assay: Induction of apoptosis in human EC109 cells assessed as live cells at 2.5 uM after 24 hrs by annexin V-FITC/propidium iodide staining-based flow cytometric analysis (reference value: 93.6%); type: functional
[22] = test system: ECa-109 cell line; assay: Induction of apoptosis in human EC109 cells assessed as late apoptotic cells at 2.5 uM after 24 hrs by annexin V-FITC/propidium iodide staining-based flow cytometric analysis (reference value: 2.5%); type: functional
[23] = test system: ECa-109 cell line; assay: Induction of apoptosis in human EC109 cells assessed as early apoptotic cells at 2.5 uM after 24 hrs by annexin V-FITC/propidium iodide staining-based flow cytometric analysis (reference value: 3.8%); type: functional
[24] = test system: ECa-109 cell line; assay: Induction of apoptosis in human EC109 cells assessed as live cells at 40 uM after 12 hrs by annexin V-FITC/propidium iodide staining-based flow cytometric analysis (reference value: 92.1%); type: functional
[25] = test system: ECa-109 cell line; assay: Induction of apoptosis in human EC109 cells assessed as early apoptotic cells at 40 uM after 12 hrs by annexin V-FITC/propidium iodide staining-based flow cytometric analysis (reference value: 6.1%); type: functional
[26] = test system: ECa-109 cell line; assay: Induction of apoptosis in human EC109 cells assessed as damaged cells at 20 uM after 12 hrs by annexin V-FITC/propidium iodide staining-based flow cytometric analysis (reference value: 0.4%); type: functional
[27] = test system: ECa-109 cell line; assay: Induction of apoptosis in human EC109 cells assessed as live cells at 10 uM after 12 hrs by annexin V-FITC/propidium iodide staining-based flow cytometric analysis (reference value: 92.1%); type: functional
[28] = test system: ECa-109 cell line; assay: Induction of apoptosis in human EC109 cells assessed as early apoptotic cells at 5 uM after 12 hrs by annexin V-FITC/propidium iodide staining-based flow cytometric analysis (reference value: 6.1%); type: functional
[29] = test system: ECa-109 cell line; assay: Induction of apoptosis in human EC109 cells assessed as damaged cells at 2.5 uM after 12 hrs by annexin V-FITC/propidium iodide staining-based flow cytometric analysis (reference value: 0.4%); type: functional
[30] = test system: ECa-109 cell line; assay: Induction of apoptosis in human EC109 cells assessed as early apoptotic cells at 2.5 uM after 12 hrs by annexin V-FITC/propidium iodide staining-based flow cytometric analysis (reference value: 6.1%); type: functional
[31] = Cytotoxicity against human L02 cells assessed as cell viability at 20 uM after 72 hrs by MTT assay relative to control; type: cell-based; settings: read-out: Activity
[32] = Cytotoxicity against human L02 cells assessed as growth inhibition after 72 hrs by MTT assay; type: cell-based; settings: L02, 72 h
[33] = test system: MGC-803; assay: Cytotoxicity against human MGC803 cells assessed as growth inhibition after 72 hrs by MTT assay; type: functional, cell-based; settings: MGC-803, 72 h
[34] = test system: ECa-109 cell line; assay: Induction of apoptosis in human EC109 cells assessed as increase in late apoptotic cells after 12 to 24 hrs by annexin V-FITC/propidium iodide staining-based flow cytometric analysis; type: functional, cell-based
[35] = test system: ECa-109 cell line; assay: Induction of apoptosis in human EC109 cells assessed as activation of caspase-3/9 at 5 to 10 uM after 24 hrs by Western blot analysis; type: functional, cell-based

For `C[C@]12CC[C@H](O)CC1=CC[C@@H]1[C@@H]2CC[C@]2(C)c3nc4ncnn4c(-c4cccc(-c5c6c(nc7ncnn57)[C@@]5(C)CC[C@H]7[C@@H](CC=C8C[C@@H](O)CC[C@@]87C)[C@@H]5C6)c4)c3C[C@@H]12`, the Activity [1] was “Active”, the Activity [2] was “Active” and the Activity [3] was “Dose-dependent effect”. The Activity [4] was 25.1%, the Activity [5] was 28.5% and the Activity [6] was 27%. It also gave an Activity [7] of 47.1%, an Activity [8] of 43.5% and an Activity [9] of 48.6%. It also gave an Activity [10] of 20.8%, an Activity [11] of 52.9% and an Activity [12] of 34.2%. The Activity [13] was “Dose-dependent effect”, the Activity [14] was 78.4% and the Activity [15] was 7.2%. For the same molecule, the Activity [16] was 31.5%, the Activity [17] was 25.4% and the Activity [18] was 47.7%. The Activity [19] was 24%, the Activity [20] was 12.2% and the Activity [21] was 72.3%. The Activity [22] was 2.5%, the Activity [23] was 25% and the Activity [24] was 14.6%. It also gave an Activity [25] of 12.2%, an Activity [26] of 2.1% and an Activity [27] of 54%. For the same molecule, the Activity [28] was 24.1%, the Activity [29] was 1.7% and the Activity [30] was 26.9%. It also gave a viability at 72 h, 20 µM [31] of 70%, an IC50 [32] of 83 µM and an IC50 [33] of 0.13 µM. The Activity [34] was “Dose-dependent effect” and the Activity [35] was “Active”.
